Data taken from US20260199289A1, “USE OF GLYCOGEN METABOLISM INHIBITORS FOR THE TREATMENT OF CANCER” (THE UNIVERSITY OF VERMONT AND STATE AGRICULTURAL COLLEGE, priority 2022, published 2026).
Entries after “also recorded” stand apart in the source; their conditions may differ.

Assays:
8505C cells [1] = assay: SRB cell viability assay in ATC cells; type: cell-based, human; conditions: 8505C ATC cells; indicated concentrations, 48 hours
Protocol: In Vitro Cell Staining for Measuring Drug Efficacy—Thyroid cells (4.0×10^3) were seeded in 96 well plates with 100 μl CTM and allowed to adhere overnight. 100 μl of CTM containing 2× concentration of compound was overlayed in each well for 48 hours unless otherwise indicated. Each well then received 100 μl of 10% w/v cold trichloroacetic acid (Fisher) and incubated at 4° C. for 1 hour to fix the cells. Each well was rinsed 3× with DI H2O and stained with 100 μl 0.057% w/v sulforhodamine B (SRB, Sigma-Aldrich) for 30 minutes at room temperature in the dark. Wells were washed 4× with 300 μl 1% v/v acetic acid (Fisher), and remaining SRB stain was solubilized with 200 μl of 10 mM Tris buffer, pH 10.5 (Fisher). Absorbance was measured at 564 nm with a Synergy 2 Multi-Detection Microplate Reader (Agilent Technologies) and normalized to a vehicle control. Drug synergy was evaluated using the coefficient of drug interaction (CDI) formula: CDI=AB/(A×B)×100, where AB is the percent remaining cells of an indicated combination treatment, A is the average percent remaining cells of agent 1 alone, and B is the average percent remaining cells of agent 2 alone. […] Hao et al., “Effect of Lumiracoxib on Proliferation and Apoptosis of Human Nonsmall Cell Lung Cancer Cells In vitro,” Chin Med J (Engl) 121:602-607 (2008), which is hereby incorporated by reference in its entirety. […]

cell lysates = conditions: cited from earlier work
purified GYS1 = target: T1, purified GYS1 (Homo sapiens, UniProt P13807); conditions: cited from earlier work
T1 sequence (P13807 1-737): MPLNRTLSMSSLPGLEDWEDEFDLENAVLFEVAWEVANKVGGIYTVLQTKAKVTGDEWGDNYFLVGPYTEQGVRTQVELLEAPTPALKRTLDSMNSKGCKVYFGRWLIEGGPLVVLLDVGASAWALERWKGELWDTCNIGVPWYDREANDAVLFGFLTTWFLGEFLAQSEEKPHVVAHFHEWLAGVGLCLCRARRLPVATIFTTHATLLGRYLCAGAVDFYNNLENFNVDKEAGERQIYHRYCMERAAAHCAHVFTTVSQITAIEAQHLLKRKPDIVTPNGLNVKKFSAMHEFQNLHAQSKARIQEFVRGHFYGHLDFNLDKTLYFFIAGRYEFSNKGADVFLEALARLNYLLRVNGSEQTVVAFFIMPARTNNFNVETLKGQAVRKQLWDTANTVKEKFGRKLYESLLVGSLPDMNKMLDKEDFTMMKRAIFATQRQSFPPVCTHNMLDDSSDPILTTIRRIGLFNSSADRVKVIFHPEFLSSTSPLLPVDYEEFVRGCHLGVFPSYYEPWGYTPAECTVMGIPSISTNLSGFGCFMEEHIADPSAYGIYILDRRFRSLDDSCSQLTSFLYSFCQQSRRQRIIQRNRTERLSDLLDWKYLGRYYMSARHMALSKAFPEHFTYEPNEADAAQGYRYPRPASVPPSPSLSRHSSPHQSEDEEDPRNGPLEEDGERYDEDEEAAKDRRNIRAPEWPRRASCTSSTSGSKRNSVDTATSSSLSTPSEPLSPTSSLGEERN

8505C cells [2] = assay: Glycogen content (colorimetric assay, TEM) in ATC cells; type: cell-based, human; conditions: for glycogen content: 8505C cells, overnight treatment
Protocol: Transmission Electron Microscopy of Glycogen Deposits—Cells were seeded in 10 cm dishes and allowed to adhere overnight. […] Cells were then rinsed with PBS and lifted with trypsin for preparation for TEM as described previously. Thwe et al., “Cell-intrinsic Glycogen Metabolism Supports Early Glycolytic Reprogramming Required for Dendritic Cell Immune Responses,” Cell Metabolism 26:558-567.e555 (2017), which is hereby incorporated by reference in its entirety.
PYGB RNA Interference—For validating successful PYGB knockdown, 4.0×10^4 cells were plated in 12 well plates containing 0.2% Lipofectamine™ 3000 Transfection Reagent and the indicated concentration of siRNA targeting PYGB or control siRNA in 1 ml CTM. RNA was extracted 72 hours later for RT-qPCR analysis and protein was extracted 96 hours later for immunoblotting. For measuring the effect of PYGB knockdown on cell viability, 1.0×10^3 cells were seeded in 96 well plates with 0.15% Lipofectamine™ 3000 Transfection Reagent and the indicated concentration of siRNA targeting PYGB or control siRNA in 200 μl CTM for 7 days before conducting the SRB assay. For measuring the effect of PYGB knockdown on glycogen content, 6.5×10^5 cells were seeded in 10 cm dishes with 0.2% Lipofectamine™ 3000 Transfection Reagent and the indicated concentration of siRNA targeting PYGB or control siRNA in 10 ml CTM for 4 days preceding cell lysis for glycogen determination.
Quantification of Levels of Glycogen, Glucose-1-Phosphate, Glucose-6-Phosphate, Lactate, ATP, Glucose, NADPH, and Glutathione—Briefly, cells were seeded in 10 cm dishes (for measuring glycogen and NADPH), 6 well plates (GIP, G6P, lactate, glucose, and glutathione), or 96 well plates (ATP) and allowed to adhere overnight. CTM was aspirated and cells were rinsed with PBS before application of compounds dissolved in CTM for 24 hours, at which point cells were ~90% confluent. CTM was then aspirated, cells were rinsed with PBS, and lysed according to the respective manufacturer protocol (see Table 4) for metabolite analysis.

[3] = cited from earlier work
OCUT-2 cells = assay: SRB cell viability assay in OCUT-2 cells; type: cell-based, human; conditions: indicated concentrations, 48 hours
Protocol: In Vitro Cell Staining for Measuring Drug Efficacy—Thyroid cells (4.0×10^3) were seeded in 96 well plates with 100 μl CTM and allowed to adhere overnight. 100 μl of CTM containing 2× concentration of compound was overlayed in each well for 48 hours unless otherwise indicated. Each well then received 100 μl of 10% w/v cold trichloroacetic acid (Fisher) and incubated at 4° C. for 1 hour to fix the cells. Each well was rinsed 3× with DI H2O and stained with 100 μl 0.057% w/v sulforhodamine B (SRB, Sigma-Aldrich) for 30 minutes at room temperature in the dark. Wells were washed 4× with 300 μl 1% v/v acetic acid (Fisher), and remaining SRB stain was solubilized with 200 μl of 10 mM Tris buffer, pH 10.5 (Fisher). Absorbance was measured at 564 nm with a Synergy 2 Multi-Detection Microplate Reader (Agilent Technologies) and normalized to a vehicle control. Drug synergy was evaluated using the coefficient of drug interaction (CDI) formula: CDI=AB/(A×B)×100, where AB is the percent remaining cells of an indicated combination treatment, A is the average percent remaining cells of agent 1 alone, and B is the average percent remaining cells of agent 2 alone. […] Hao et al., “Effect of Lumiracoxib on Proliferation and Apoptosis of Human Nonsmall Cell Lung Cancer Cells In vitro,” Chin Med J (Engl) 121:602-607 (2008), which is hereby incorporated by reference in its entirety.

[4] = system: mouse embryonic fibroblasts; conditions: cited from earlier work

In the case of `Oc1ccc(-c2c(-c3ccc(O)c(O)c3O)n[nH]c2C(F)(F)F)cc1` [yGsy2p-IN-1], the “cell viability (SRB assay)” value (8505C cells [1]) is listed as “limit ATC viability; also recorded: limited cell viability in ATC cells”, the 14C-glucose incorporation (cell lysates) is listed as “decreased 14C-glucose incorporation in cell lysates” and the “inhibition of purified GYS1” value (purified GYS1) is listed as “robustly inhibited purified GYS1”. The glycogen content (8505C cells [2]) was “decrease glycogen content; also recorded: successfully reduced glycogen levels”.
In the case of `CON(C)C(=O)[C@H](O)[C@H](Cc1ccccc1)NC(=O)c1cc2cc(Cl)ccc2[nH]1` [CP316819, 5-chloro-N-[(2S,3R)-3-hydroxy-4-[methoxy(methyl)amino]-4-oxo-1-phenylbutan-2-yl]-1H-indole-2-carboxamide], the “cell viability (SRB assay)” value (8505C cells [1]) is listed as “sensitive; also recorded: limited cell viability”, the glycogen content (8505C cells [2]) is listed as “increased the glycogen content” and the “glycogen storage in rat brains” value [3] is listed as “enhanced glycogen storage in rat brains”.
For `COc1ccccc1O` [guaiacol], the “cell viability (SRB assay)” value (OCUT-2 cells) is given as “decrease ATC cell viability”, the “decrease of glycogen stores” value [4] is given as 50% and the “cell viability (SRB assay)” value (8505C cells [1]) is given as “decrease ATC cell viability”. For the same compound, the glycogen content (8505C cells [2]) was “decrease” and the “decrease of glycogen stores” value (8505C cells [2]; ATC cells, stated as comparable to the literature value) was ~50%.
